Measurements reported in ChEMBL document CHEMBL1154213, “Composition of the fresh leaves and stems of Melissa officinalis and evaluation of skin irritation in a reconstituted human epidermis model” (J Nat Prod, 2009).
In brackets after ≈: the same amount, converted by molar mass. One block for each compound: values may come before it. Activity calls are given as the source filed them. The rule behind the calls is not given here.

Assays:
[1] = system: Radical scavenging activity; assay: Antioxidant activity assessed as DPPH radical scavenging activity; type: functional
[2] = Cytotoxicity against human reconstituted epidermal cells at 17.1 mM after 15 mins of topical exposure followed by 42 hrs of recovery by MTT assay; type: cell-based; details: 0.25 h, 17100 µM
Homo sapiens = assay: Antiinflammatory activity against reconstituted human epidermis model assessed as inhibition of IL1-alpha release measured after 15 mins of topical exposure followed by 42 hrs of recovery by ELISA; type: functional; details: Skin epidermis
Skin epidermis = assay: Reduction of trans epithelial electrical resistance in human reconstituted epidermis after 15 mins of topical exposure followed by 42 hrs of recovery; type: functional
Staphylococcus aureus [3] = assay: Antimicrobial activity against Staphylococcus aureus ATCC 6538 after 48 hrs by broth dilution method; type: functional; details: ATCC 6538, 48 h
Staphylococcus aureus [4] = assay: Antimicrobial activity against Staphylococcus aureus ATCC 6538 after 24 hrs by broth dilution method; type: functional; details: ATCC 6538, 24 h
[5] = system: Staphylococcus epidermidis; assay: Antimicrobial activity against Staphylococcus epidermidis ATCC 12228 after 48 hrs by broth dilution method; type: functional; details: ATCC 12228, 48 h
[6] = system: Staphylococcus epidermidis; assay: Antimicrobial activity against Staphylococcus epidermidis ATCC 12228 after 24 hrs by broth dilution method; type: functional; details: ATCC 12228, 24 h
Bacillus spizizenii [7] = assay: Antimicrobial activity against Bacillus spizizenii ATCC 6633 after 24 hrs by broth dilution method; type: functional
Bacillus spizizenii [8] = assay: Antimicrobial activity against Bacillus spizizenii ATCC 6633 after 48 hrs by broth dilution method; type: functional; details: ATCC 6633, 48 h
Pseudomonas aeruginosa [9] = assay: Antimicrobial activity against Pseudomonas aeruginosa ATCC 9027 after 24 hrs by broth dilution method; type: functional; details: ATCC 9027, 24 h
Pseudomonas aeruginosa [10] = assay: Antimicrobial activity against Pseudomonas aeruginosa ATCC 9027 after 48 hrs by broth dilution method; type: functional; details: ATCC 9027, 48 h
Escherichia coli [11] = assay: Antimicrobial activity against Escherichia coli ATCC 8739 after 24 hrs by broth dilution method; type: functional, organism-based
Escherichia coli [12] = assay: Antimicrobial activity against Escherichia coli ATCC 8739 after 48 hrs by broth dilution method; type: functional, organism-based
Candida albicans [13] = assay: Antimicrobial activity against Candida albicans ATCC 10231 after 24 hrs by broth dilution method; type: functional; details: ATCC 10231, 24 h
Candida albicans [14] = assay: Antimicrobial activity against Candida albicans ATCC 10231 after 5 days by broth dilution method; type: functional, organism-based
Aspergillus niger [15] = assay: Antimicrobial activity against Aspergillus niger ATCC 16404 after 24 hrs by broth dilution method; type: functional; details: ATCC 16404, 24 h
Aspergillus niger [16] = assay: Antimicrobial activity against Aspergillus niger ATCC 16404 after 5 days by broth dilution method; type: functional, organism-based

SMILES: C[C@@H]1CC[C@]2(C(=O)O)CC[C@]3(C)C(=CC[C@@H]4[C@@]5(C)C[C@@H](O)[C@H](O)[C@@](C)(COS(=O)(=O)O)[C@@H]5CC[C@]43C)[C@@H]2[C@]1(C)O
- Activity [1]: inactive
- Activity [2]: > 75%
- Activity (Homo sapiens): Non-toxic
- Activity (Skin epidermis): Non-toxic

SMILES: C[C@@H]1CC[C@]2(C(=O)O[C@@H]3O[C@H](CO)[C@@H](O)[C@H](O)[C@H]3O)CC[C@]3(C)C(=CC[C@@H]4[C@@]5(C)C[C@@H](O)[C@H](O)[C@@](C)(COS(=O)(=O)O)[C@@H]5CC[C@]43C)[C@@H]2[C@]1(C)O
- Activity [1]: inactive

- EC50 [1]: 17.8 µM
SMILES: O=C(O)/C=C/c1ccc(O)c(O)c1 [CAFFEIC ACID]

- EC50 [1]: 8 µM
- MIC (Staphylococcus aureus [4]): 120 µg/mL (≈ 0.333 mM)
- MIC [6]: 120 µg/mL (≈ 0.333 mM)
- MIC (Bacillus spizizenii [7]): 4000 µg/mL (≈ 11.1 mM)
- MIC (Pseudomonas aeruginosa [9]): 2000 µg/mL (≈ 5.55 mM)
- MIC (Escherichia coli [11]): inactive
- MIC (Candida albicans [13]): 2000 µg/mL (≈ 5.55 mM)
- MIC (Aspergillus niger [15]): 4000 µg/mL (≈ 11.1 mM)
SMILES: O=C(/C=C/c1ccc(O)c(O)c1)O[C@H](Cc1ccc(O)c(O)c1)C(=O)O [ROSMARINIC ACID]
- MBC (Staphylococcus aureus [3]): 120 µg/mL (≈ 0.333 mM)
- MBC [5]: 1000 µg/mL (≈ 2.78 mM)
- MBC (Bacillus spizizenii [8]): 4000 µg/mL (≈ 11.1 mM)
- MBC (Pseudomonas aeruginosa [10]): 4000 µg/mL (≈ 11.1 mM)
- MBC (Escherichia coli [12]): inactive
- MBC (Candida albicans [14]): inactive
- MBC (Aspergillus niger [16]): inactive
